Consider 50 compounds from patent publication US8507472B2 (priority 2010, dated 2013).

One may read the chromatographic logP as a lipophilicity value derived from retention on a column. A low value points to a more hydrophilic compound.

Data set [1] in a line: log P determination by HPLC retention times (alkan-2-one calibration). The following applies: preparation examples in the text.
The next data set has as its system Pyrenophora teres. As to the kind of experiment: Pyrenophora teres test (barley)/protective. The following applies: in vivo. The data set is classed as in vivo. Here is the method:
Solvent: 49 parts by weight of N,N-dimethylformamide
Emulsifier: 1 part by weight of alkylaryl polyglycol ether
To produce a suitable preparation of active compounds, 1 part by weight of active compound is mixed with the stated amounts of solvent and emulsifier, and the concentrate is diluted with water to the desired concentration.
To test for protective activity, young barley plants are sprayed with the active compound preparation at the stated application rate. 1 day after the treatment, the plants are inoculated with an aqueous spore suspension of Pyrenophora teres and then remain at 100% rel. atmospheric humidity and 22° C. for 48 h. The plants are then placed in a greenhouse at 80% rel. atmospheric humidity and a temperature of 20° C.
Evaluation is carried out 7-9 days after the inoculation. 0% means an efficacy which corresponds to that of the control, whereas an efficacy of 100% means that no infection is observed.

In data set [1] (log P(HCOOH), HCOOH), `Fc1ccc(-c2nn3c(c2Br)COCC3)cc1` [VIII-17, 3-Bromo-2-(4-fluorophenyl)-6,7-dihydro-4H-pyrazolo[5,1-c][1,4]oxazine] showed a chromatographic logP of 2.9.
Turning to `Ic1c(-c2ccccc2)nn2c1CCC2` [VIII-5, 2-(Phenyl)-3-iodo-5,6-dihydro-4H-pyrrolo[1,2-b]pyrazole], in data set [1] (log P(HCOOH), HCOOH), the chromatographic logP was determined as 3.09.
In data set [1] (log P(HCOOH), HCOOH), `CC1CCn2nc(-c3ccc(F)cc3)c(C(=O)O)c21` (centres unmarked) [XXXI-2, 2-(4-Fluorophenyl)-4-methyl-5,6-dihydro-4H-pyrrolo[1,2-b]pyrazole-3-carboxylic acid] returned a chromatographic logP of 1.84.
For the compound `CC1CCc2c(I)c(-c3ccc(F)cc3)nn21` (centres unmarked) [VIII-19, 2-(4-Fluorophenyl)-3-iodo-6-methyl-5,6-dihydro-4H-pyrrolo[1,2-b]pyrazole], the chromatographic logP in data set [1] (log P(HCOOH), HCOOH) is 3.82.
Consider `COC(=O)c1cc(-c2ccc(F)cc2)nn1CCCl` [XI-1, Methyl 1-(2-chloroethyl)-3-(4-fluorophenyl)-1H-pyrazole-5-carboxylate], for which the chromatographic logP in data set [1] (log P(HCOOH), HCOOH) is 3.58.
`Fc1ccc(-c2cc(CCOCc3ccccc3)[nH]n2)cc1` [XXI, 5-[2-(Benzyloxy)ethyl]-3-(4-fluorophenyl)-1H-pyrazole]: the chromatographic logP in data set [1] (log P(HCOOH), HCOOH) stood at 3.09.
As for `FC(F)(F)c1ccc(C#Cc2ccncc2)cc1` [II-1, 4-{[4-(Trifluoromethyl)phenyl]ethynyl}pyridine], the chromatographic logP in data set [1] (log P(HCOOH), HCOOH) stood at 2.86.
Compound `COc1ccc(C#Cc2ccncc2)cc1` [II-3, 4-{[4-(Methoxy)phenyl]ethynyl}pyridine] registered a chromatographic logP in data set [1] (pH 7, log P(pH7), pH7) of 2.68.
`Fc1ccc(C#Cc2ccncc2)cc1` [II-4, 4-{[4-Fluorophenyl]ethynyl}pyridine] registered a chromatographic logP in data set [1] (pH 7, log P(pH7), pH7) of 2.81.
Consider `COC(=O)CC(=NN1C(=O)CCC1C)c1ccc(F)cc1` (centres unmarked) [XXVIII-1, Methyl 3-(4-fluorophenyl)-3-[(2-methyl-5-oxopyrrolidin-1-yl)imino]propanoate], for which the chromatographic logP in data set [1] (log P(HCOOH), HCOOH) was found to be 2.13.
In turn, `OCc1cc(-c2ccc(F)cc2)nn1CCCl` [XIII-1, [1-(2-Chloroethyl)-3-(4-fluorophenyl)-1H-pyrazol-5-yl]methanol] showed a chromatographic logP in data set [1] (log P(HCOOH), HCOOH) of 1.84.
Same read-out and setting: for `Cc1ccc(-c2cc3n(n2)CCC3)cc1` [VII-8, 2-[4-Methylphenyl]-5,6-dihydro-4H-pyrrolo[1,2-b]pyrazole] the value was 2.64.
For the compound `CCOC(=O)CC(=NN1C(=O)CCC1C)c1ccccc1F` (centres unmarked) [XXVIII-3, Ethyl 3-(2-fluorophenyl)-3-[(2-methyl-5-oxopyrrolidin-1-yl)imino]propanoate], in data set [1] (log P(HCOOH), HCOOH), the chromatographic logP stood at 2.34.
Compound `CC1CCc2c(Br)c(-c3ccc(F)cc3)nn21` (centres unmarked) [VIII-20, 2-(4-Fluorophenyl)-3-bromo-6-methyl-5,6-dihydro-4H-pyrrolo[1,2-b]pyrazole] came in with a chromatographic logP in data set [1] (log P(HCOOH), HCOOH) of 3.77.
The same measure, in the same setting: for `FC(F)(F)c1cccc(-c2cc3n(n2)CCC3)c1` [VII-6, 2-[3-(Trifluoromethyl)phenyl]-5,6-dihydro-4H-pyrrolo[1,2-b]pyrazole] the value was 3.25; for `Fc1cccc(-c2nn3c(c2I)CCC3)c1` [VIII-11, 2-[3-Fluorophenyl]-3-iodo-5,6-dihydro-4H-pyrrolo[1,2-b]pyrazole], 3.32.
Regarding `CC1CCN(N=C(c2ccccc2)c2ccccc2)C1=O` (centres unmarked) [XXV-3, 1-[(Diphenylmethylene)amino]-3-methylpyrrolidin-2-one], the chromatographic logP in data set [1] (log P(HCOOH), HCOOH) came to 2.62.
As for `Fc1ccc(-c2nn3c(c2I)CCC3)cc1` [VIII-6, 2-(4-Fluorophenyl)-3-iodo-5,6-dihydro-4H-pyrrolo[1,2-b]pyrazole], the chromatographic logP in data set [1] (log P(HCOOH), HCOOH) turned out to be 3.3.
In data set [1] (log P(HCOOH), HCOOH), `Clc1ccc(-c2cc3n(n2)CCC3)cc1` [VII-4, 2-(4-Chlorophenyl)-5,6-dihydro-4H-pyrrolo[1,2-b]pyrazole] displayed a chromatographic logP of 2.86.
Turning to `[O-]c1on[n+]2c1CCCC2` [III-2, 4,5,6,7-Tetrahydro[1,2,3]oxadiazolo[3,4-a]pyridin-8-ium 3-olate], in data set [1] (log P(HCOOH), HCOOH), the chromatographic logP came to 0.59.
In the case of `CC(C)CC(=O)Nc1cc(-c2c(-c3ccc(F)cc3)nn3c2CCOC3(C)C)ccn1` [Example 105], in the data set with Pyrenophora teres, the efficacy in % amounted to 95%.
The compound `OCc1cc(-c2ccccc2)n[nH]1` [XIV-1, (3-Phenyl-1H-pyrazol-5-yl)methanol] registered a chromatographic logP in data set [1] (log P(HCOOH), HCOOH) of 1.14.
`Brc1c(-c2ccccc2)nn2c1CSCC2` [VIII-18, 3-Bromo-2-phenyl-6,7-dihydro-4H-pyrazolo[5,1-c][1,4]thiazine] gave a chromatographic logP in data set [1] (log P(HCOOH), HCOOH) of 3.42.
Turning to `c1csc(-c2cc3n(n2)CCCC3)c1` [VII-11, 2-(2-Thienyl)-4,5,6,7-tetrahydropyrazolo[1,5-a]pyridine], in data set [1] (log P(HCOOH), HCOOH), the chromatographic logP is 2.42.
On the same count and under the same terms, the value for `CC1CCC(=O)N1N=C(c1ccccc1)c1ccccc1` (centres unmarked) [XXVI-1, 1-[(Diphenylmethylene)amino]-5-methylpyrrolidin-2-one] was 2.73.
On to `CCOC(=O)c1c(-c2ccccc2F)nn2c1CCC2` [XXX-3, Ethyl 2-(2-fluorophenyl)-5,6-dihydro-4H-pyrrolo[1,2-b]pyrazole-3-carboxylate], for which the chromatographic logP in data set [1] (log P(HCOOH), HCOOH) turned out to be 2.49.
`FC(F)(F)c1cccc(-c2nn3c(c2I)CCC3)c1` [VIII-3, 2-[3-(Trifluoromethyl)phenyl]-3-iodo-5,6-dihydro-4H-pyrrolo[1,2-b]pyrazole] had a chromatographic logP in data set [1] (log P(HCOOH), HCOOH) of 4.11.
`FC(F)(F)c1cccc(C#Cc2ccncc2)c1` [II-2, 4-{[3-(Trifluoromethyl)phenyl]ethynyl}pyridine] gave a chromatographic logP in data set [1] (pH 7, log P(pH7), pH7) of 3.5.
Regarding `Fc1ccc(-c2cc3n(n2)CCOC3)cc1` [VIIa-1, 2-(4-Fluorophenyl)-6,7-dihydro-4H-pyrazolo[5,1-c][1,4]oxazine], the chromatographic logP in data set [1] (log P(HCOOH), HCOOH) was found to be 2.01.
The compound `CC1(C)OCCc2c(I)c(-c3ccc(F)cc3)nn21` [VIII-16, 2-(4-Fluorophenyl)-3-iodo-7,7-dimethyl-4,5-dihydropyrazolo[1,5-c][1,3]oxazine] yielded a chromatographic logP in data set [1] (log P(HCOOH), HCOOH) of 4.28.
On the same count and under the same terms, the value for `c1cc(-c2cc3n(n2)CCCC3)cs1` [VII-12, 2-(3-Thienyl)-4,5,6,7-tetrahydropyrazolo[1,5-a]pyridine] was 2.25; that for `Fc1ccc(C#Cc2ccnc(Cl)c2)cc1` [II-6, 2-Chloro-4-[(4-fluorophenyl)ethynyl]pyridine] was 3.8; that for `COC(=O)CC(=NN1CCC(C)C1=O)c1ccc(F)cc1` (centres unmarked) was 2.09.
In the case of `CC(C)CNc1cc(-c2c(-c3cccc(F)c3)nn3c2CCC3)ccn1` [Example 73], the efficacy in % in the data set on Pyrenophora teres turned out to be 70%.
Take `FC(F)(F)c1ccc(-c2nn3c(c2I)CCC3)cc1` [VIII-10, 2-[4-(Trifluoromethyl)phenyl]-3-iodo-5,6-dihydro-4H-pyrrolo[1,2-b]pyrazole]: in data set [1] (log P(HCOOH), HCOOH), the chromatographic logP amounted to 4.13.
In data set [1] (log P(HCOOH), HCOOH), `Fc1ccc(-c2nn3c(c2I)CCCC3)cc1` [VIII-1, 2-(4-Fluorophenyl)-3-iodo-4,5,6,7-tetrahydropyrazolo[1,5-a]pyridine] registered a chromatographic logP of 3.79.
As to `Ic1c(-c2cccs2)nn2c1CCCC2` [VIII-13, 2-(2-Thienyl)-3-iodo-4,5,6,7-tetrahydropyrazolo[1,5-a]pyridine], in data set [1] (log P(HCOOH), HCOOH), the chromatographic logP was 3.45.
`CC(C)CNc1cc(-c2c(-c3ccccc3)nn3c2CCC3)ccn1` [Example 72] yielded an efficacy in % with Pyrenophora teres of 80%.
Take `c1ccc(-c2cc3n(n2)CCCC3)cc1` [VII-5, 2-(Phenyl)-4,5,6,7-tetrahydropyrazolo[1,5-a]pyridine]: the chromatographic logP in data set [1] (log P(HCOOH), HCOOH) worked out at 2.57.
Regarding `COC(=O)c1c(-c2ccc(F)cc2)nn2c1CCC2C` (centres unmarked) [XXX-1, Methyl 2-(4-fluorophenyl)-6-methyl-5,6-dihydro-4H-pyrrolo[1,2-b]pyrazole-3-carboxylate], the chromatographic logP in data set [1] (log P(HCOOH), HCOOH) worked out at 2.84.
In data set [1] (log P(HCOOH), HCOOH), `Clc1ccc(-c2nn3c(c2I)CCC3)cc1` [VIII-4, 2-(4-Chlorophenyl)-3-iodo-5,6-dihydro-4H-pyrrolo[1,2-b]pyrazole] came in with a chromatographic logP of 3.88.
As for `Ic1c(-c2ccsc2)nn2c1CCCC2` [VIII-14, 2-(3-Thienyl)-3-iodo-4,5,6,7-tetrahydropyrazolo[1,5-a]pyridine], the chromatographic logP in data set [1] (log P(HCOOH), HCOOH) was determined as 3.4.
In data set [1] (log P(HCOOH), HCOOH), `CC1CCn2nc(-c3ccc(F)cc3)c(I)c21` (centres unmarked) [VIII-21, 2-(4-Fluorophenyl)-3-iodo-4-methyl-5,6-dihydro-4H-pyrrolo[1,2-b]pyrazole] returned a chromatographic logP of 3.67.
Compound `Cc1ccc(-c2nn3c(c2I)CCC3)cc1` [VIII-7, 2-[4-Methylphenyl]-3-iodo-5,6-dihydro-4H-pyrrolo[1,2-b]pyrazole] displayed a chromatographic logP in data set [1] (log P(HCOOH), HCOOH) of 3.54.
In turn, `O=C(C#CCCOCc1ccccc1)c1ccc(F)cc1` [XX-1, 5-(Benzyloxy)-1-(4-fluorophenyl)pent-2-yn-1-one] showed a chromatographic logP in data set [1] (log P(HCOOH), HCOOH) of 3.89.
On the same count and under the same terms, for `COC(=O)c1c(-c2ccc(F)cc2)nn2c1C(C)CC2` (centres unmarked) [XXX-2, Methyl 2-(4-fluorophenyl)-4-methyl-5,6-dihydro-4H-pyrrolo[1,2-b]pyrazole-3-carboxylate] the value was 2.71; for `CC(CCC(=O)NN=C(c1ccccc1)c1ccccc1)OS(C)(=O)=O` (centres unmarked) [5-[2-(diphenylmethylene)hydrazino]-5-oxopentan-2-yl methanesulphonate], 2.82.
Compound `Fc1ccc(-c2nn3c(c2I)CCCCC3)cc1` [VIII-2, 2-(4-Fluorophenyl)-3-iodo-5,6,7,8-tetrahydro-4H-pyrazolo[1,5-a]azepine] yielded a chromatographic logP in data set [1] (log P(HCOOH), HCOOH) of 4.35.
In the case of `O=C(O)c1c(-c2ccccc2F)nn2c1CCC2` [XXXI-4, 2-(2-Fluorophenyl)-5,6-dihydro-4H-pyrrolo[1,2-b]pyrazole-3-carboxylic acid], the chromatographic logP in data set [1] (log P(HCOOH), HCOOH) worked out at 1.35.
On to `Nc1cc(-c2c(-c3ccc(F)cc3)nn3c2CCOC3)ccn1` [Example 103], for which the efficacy in % in the data set with Pyrenophora teres was found to be 90%.
